Values of other authors, collected in US12090029B2, “Devices and methods for enhancing immunogenicity to intradermal vaccination” (VERSITECH LIMITED, priority 2016, dated 2024).

How the values were obtained:
[1] = system: influenza vaccine; conditions: mouse model, imiquimod cream applied (Zhang et al., 2014)
[2] = system: influenza vaccination; conditions: elderly subjects
[3] = system: vaccine influenza strains; conditions: young healthy individuals, topical application before intradermal trivalent influenza vaccine (Hung et al., 2016)

## CC(C)Cn1cnc2c(N)nc3ccccc3c21 [imiquimod]
[1]
  immunogenicity of influenza vaccine: enhanced
[2]; relative to a vaccine-only group
  hospitalizations for influenza or pneumonia: fewer
[2]; sustained to 1 year, relative to a vaccine-only group
  seroconversion rate: earlier and better
[2]; topical pre-treatment, relative to a vaccine-only group (Hung et al., 2014)
  immunogenicity of influenza vaccination: significantly expedited, augmented, and prolonged
[3]
  immunogenicity against the non-vaccine strains: increased
  immunogenicity against the vaccine influenza strains: significantly improved
